# Results as given in patent US20180119123A1, “CRISPR/CAS-RELATED METHODS AND COMPOSITIONS FOR TREATING HIV INFECTION AND AIDS” (EDITAS MEDICINE, INC., priority 2015, published 2018).
# Entries after “also recorded” stand apart in the source; their conditions may differ.
# Test system: CXCR4 locus
# Experiment: T7E1 assay for indels/NHEJ at the CXCR4 locus in Nucleofected CD34+ HSCs
# Format: cell-based, human
# Conditions: 40 nM UM171; S. aureus or S. pyogenes Cas9 and CXCR4 gRNA plasmids; 96 hours
# Protocol: For the T7E1 assay, PCR amplicons are approximately 500-700 bp with the intended cut site placed asymmetrically in the amplicon. Following amplification, purification and size-verification of PCR products, DNA is denatured and re-hybridized by heating to 95° C. and then slowly cooling. Hybridized PCR products are then digested with T7 Endonuclease I (or other mismatch-sensitive enzyme) which recognizes and cleaves non-perfectly matched DNA. […] Digestion products may be visualized by gel electrophoresis or by capillary electrophoresis. The fraction of DNA that is cleaved (density of cleavage products divided by the density of cleaved and uncleaved) may be used to estimate a percent NHEJ using the following equation: % NHEJ=(1-(1-fraction cleaved)^1/2). The T7E1 assay is sensitive down to about 2-5% NHEJ.
# Human CD34^+ HSCs cells from mobilized peripheral blood (AllCells) were thawed into StemSpan Serum-Free Expansion Medium (SFEM, StemCell Technologies) containing 100 ng/mL each of the following cytokines: human stem cell factor (SCF), thrombopoietin (TPO), and flt-3 ligand (FL) (all from Peprotech). […]
# In order to detect indels at the CXCR4 locus, T7E1 assays were performed on CXCR4 locus-specific PCR products that were amplified from genomic DNA samples from Nucleofected™ CD34^+ HSCs and then calculated the percentage of NHEJ detected at the CXCR4 locus (FIG. 11B).
structure (smiles),measurement,value
"Cn1nnc(-c2ccc3c(c2)[nH]c2nc(Cc4ccccc4)nc(N[C@H]4CC[C@H](N)CC4)c23)n1 [UM171, (1r,4r)-N1-(2-benzyl-7-(2-methyl-2H-tetrazol-5-yl)-9H-pyrimido[4,5-b]indol-4-yl)cyclohexane-1,4-diamine]",Percentage of genome editing at the CXCR4 locus with UM171 pre-treatment versus without,higher percentage of genome editing at the CXCR4 locus; also recorded: increased genome editing at the CXCR4 locus
